The numbers were not newly measured in US20250179129A1, “ZINC FINGER PEPTIDES, PEPTIDE ARRAYS, AND METHODS OF USE THEREOF” (The Regents of the University of California, priority 2022, published 2025), which cites them from elsewhere.

This data set relates to single-strand RNA containing a GGU motif.

As to “SDGDWICPDKKCGNVNFARRTSCNRCGREKTT (listed as Homo sapiens) [zinc finger in ZRANB2]”, the “affinity for single-strand RNA containing a GGU motif” value is on record as “micromolar”.
